Reference: US8697390B2, “Method and kit for examination of cells using N-(9-acridinyl) maleimide (NAM) or using 7-diethylamino-3-((4′-iodacetyl)amino)phenyl)-4-methylkcoumarin (CPI)” (ChemoMetec A/S, priority 2008, dated 2014)

Tests used:
Jurkat (JM) cells [1] = assay: CPI/PI staining as marker of cell viability in proliferating Jurkat cells; type: cell-based; details: 98% viable, 10 μL CPI (100 μg/mL DMSO) in 90 μL cells
Protocol: (§1) Jurkat (JM) cells were grown at 37° C. in a humidified air atmosphere with 5% CO2 in RPMI (Invitrogen, #61870) supplemented with 10% heat-inactivated fetal bovine serum (Invitrogen, #10108-165). 90 μL proliferating Jurkat cells (cell density 1.1×10^6, 98% viable determined using the NC-100 NucleoCounter system following the manufacturer's (ChemoMetec) protocol) were added 10 μL CPI (7-diethylamino-3-((4′-(iodoacetyl)amino)phenyl)-4-methylcoumarin, Sigma 78264 CAS no. 76877-34-4) dissolved in DMSO (100 μg CPI pr. mL DMSO) and mixed by pipetting. Cells were loaded into a NucleoCassette, containing the DNA stain propidium iodide (PI). The cells were investigated using an Olympus IX50 fluorescent microscope, and images were captured using a Lumenera CCD camera and in-house developed software. PI and CPI fluorescence were detected using, respectively, U-MWG2 (green long pass: 510-550 nm) and U-MNUA2 (UV band pass, 330-385 nm) filter cubes (Olympus).

HEK293 cells = assay: NAM/PI staining to determine viability of outgrown HEK293 cells (fluorescence microscopy); type: cell-based, human; details: for staining of Triton X-100 treated cells: HEK293 cells treated with 0.25% Triton X-100, then 10 μg/mL NAM, PI from NucleoCassette
Protocol: HEK293 cells were grown at 37° C. in a humidified air atmosphere with 5% CO2 in DMEM (Invitrogen, #31966) supplemented with 10% heat-inactivated fetal bovine serum (Invitrogen, #10108-165). Cells were harvested with 0.5 mL of trypsin (Invitrogen, #25300) and neutralized with 5 mL medium (DMEM+10% FCS) two days after they had reached full confluency. These outgrown HEK293 cells (cell density 1.6×10^6, 78% viable determined using the NC-100 NucleoCounter system following the manufacturer's (ChemoMetec) protocol) were stained with 10 μg/mL NAM (Sigma, #01665). Another cell sample were treated with 0.25% Triton X-100 (Sigma, #T9284) and hereafter added 10 μg/mL NAM. After staining, each cell sample was loaded into a NucleoCassette, containing the DNA stain propidium iodide (PI). The cells were investigated using an Olympus IX50 fluorescent microscope, and images were captured using a Lumenera CCD camera and in-house developed software. PI and NAM fluorescence were detected using, respectively, U-MWG2 (green long pass: 510-550 nm) and U-MNUA2 (UV band pass, 330-385 nm) filter cubes (Olympus).

bone marrow cells = assay: NAM/PI staining to determine viability of bone marrow derived cells; type: cell-based, murine; details: 93% viable, 10 μL NAM (100 μg/mL DMSO) in 90 μL cells
Protocol: The bone marrow cells were harvested aseptically in the laminar flow hood. Briefly, bilateral tibia and femur were aseptically removed, freed of surrounding soft tissue, and placed in a petri dish with 10 mL 70% ethanol. After 2 minutes they were transferred to ice cold PBS. The bone marrow cavity was then flushed with 5 ml cold PBS using a 5-ml syringe with a 27-gauge needle attached, and the cells were collected from each bone. The cells were centrifuged at 300 g for 10 min, the supernatant was discarded, and cells were washed twice. After the second wash the cell pellet was resuspended in RPMI 1640 (Invitrogen, #61870) supplemented with 10% heat-inactivated fetal bovine serum (Invitrogen, #10108-165), 100 U/mL penicillin and 100 μg/mL streptomycin (Invitrogen, #15140-122). 90 μL bone marrow cells (cell density 1.7×10^6, 93% viable determined using the NC-100 NucleoCounter system following the manufacturer's (ChemoMetec A/S) protocol) were added 10 μL NAM (N-(9-acridinyl)maleimide, Sigma, #01665, CAS no. 49759-20-8) dissolved in DMSO (100 μg NAM pr. mL DMSO) and mixed by pipetting. Cells were loaded into a NucleoCassette, containing the DNA stain propidium iodide (PI). […] PI and NAM fluorescence were detected using, respectively, U-MWG2 (green long pass: 510-550 nm) and U-MNUA2 (UV band pass, 330-385 nm) filter cubes (Olympus).

Jurkat (JM) cells [2] = assay: NAM/PI staining to determine viability of proliferating Jurkat cells (fluorescence microscopy); type: cell-based; details: 99% viable, 10 μL NAM (100 μg/mL DMSO) in 90 μL cells, UV band pass filter
Protocol: as §1, with “1.2×10^6, 99%” for “1.1×10^6, 98%”, “(ChemoMetec A/S)” for “(ChemoMetec)”, “NAM (N-(9-acridinyl)maleimide, Sigma, #01665,” for “CPI (7-diethylamino-3-((4′-(iodoacetyl)amino)phenyl)-4-methylcoumarin, Sigma 78264”, “49759-20-8)” for “76877-34-4)”, “NAM” for “CPI”

S. pombe strain Eg328 = assay: NAM and propidium iodide staining of fission yeast; type: cell-based, Schizosaccharomyces pombe
Protocol: S. pombe strain Eg328, h^90 smt-0 ura4-D18, (ATCC 90720; Styrkarsdottir U et al. Curr. Genet. 23: 184-186, 1993) was grown in a rotary shaker at 29° C. to a density of 1×10^7 cells/ml in EMM minimal medium (Moreno et al., Methods Enzym. 194: 795-823, 1991) supplemented with 10 mM of L-uridine (Sigma, U3750). Cells were collected by centrifuging, washed with sterile water and stained with 10 μg/ml NAM (N-(9-acridinyl)-maleimide, Sigma, #01665) and 10 μg/ml propidium iodide (Applichem, #A2261.9010) prior to mounting on a microscope slide. Olympus IX50 was used for microscopy, and images were captured using a Lumenera CCD camera and in-house developed software. Propidium iodide and NAM fluorescence were detected using, respectively, U-MWG2 and U-MNUA2 filter cubes (Olympus).

MCF-7 cells = assay: Intracellular localization of fluorescent NAM in GFP / H2B-GFP expressing cells; type: cell-based; details: 10 μg/ml NAM
From the text: (§2) MCF-7 (ATTC HTB-22) and U2OS (ATTC HTB-96) cells were cultivated in RPMI (Invitrogen, #61870)+10% FCS (Invitrogen, #10108-165). Cells were transfected with, respectively, pEGFP-C1 (Clontech) and pBOS-H2B-GFP (Pharmingen, BD Biosciences) using Lipofectamine 2000 (Invitrogen, #11668-027) according to manufacturer's instructions. Stable cells lines expressing GFP (green fluorescent protein) or H2B-GFP (GFP N-terminally fused to histone H2B) were cultivated in, respectively, T25 flasks and in chamber slides (Nunc) to 75% confluency. Cells from T25 flasks were harvested with 0.5 ml of trypsin (Invitrogen, #25300), neutralized with 5 ml of medium (RPMI+10% FCS), stained with 10 μg/ml NAM (N-(9-acridinyl), maleimide, Sigma, #01665) prior to mounting on a microscope slide. Cells grown on chamber slides were directly stained with 10 μg/ml NAM (N-(9-acridinyl)-maleimide). Olympus IX50 was used for microscopy, and images were captured using a Lumenera CCD camera and in-house developed software. GFP and NAM fluorescence were detected using, respectively, U-MNIB3 and U-MNUA2 filter cubes (Olympus).
(§3) Cells expression GFP or H2B-GFP were used for determining the intracellular localization of fluorescent NAM.

U2OS cells = assay: as above; type: cell-based; details: 10 μg/ml NAM
From the text: as §2, §3

[3] = Excitation spectra of NAM with -SH reagents (spectrofluorophotometer); type: physicochemical
Protocol: The excitation spectra of NAM, glutathione GSH, GSSG and DTT and combinations thereof were obtained using a spectrofluorophotometer (RF-5301 Fluorescence Spectrophotometer, Shimadzu). 10 μL NAM dissolved in DMSO (100 μg/mL) were added to 3 mL distilled water (resulting concentration of NAM; 0.33 μg/mL) in a quartz cuvette and the excitation spectrum was recorded. Likewise were the spectra of NAM (0.33 μg/mL) together with GSH (167 μg/mL), NAM (0.33 μg/mL) together with GSSG (167 μg/mL), NAM together with DTT (167 μg/mL), GSH (167 μg/mL) alone, GSSG (167 μg/mL) alone and DTT (167 μg/mL) alone recorded.

[4] = Akasaka et al. 1990; cited from earlier work
[5] = system: primary murine splenocytes; assay: NAM/PI staining to determine viability of primary murine splenocytes; type: cell-based, C57BL/6 mouse; details: 90% viable, 10 μL NAM (100 μg/mL DMSO) in 90 μL cells
Protocol: The spleen from a C57BL/6 mouse was placed in ice-cold PBS and gently ground using the end of a sterile syringe. The suspension was centrifuged at 300 g for 10 minutes; the pellet was resuspended in 1 mL 0.83% NH4Cl to lyse erythrocytes and incubated for 3 minutes on ice. The cells were then added 14 mL PBS and centrifuged at 300 g for 10 minutes. The splenocytes were resuspended in RPMI (Invitrogen, #61870) supplemented with 10% heat-inactivated fetal bovine serum (Invitrogen, #10108-165), 100 U/mL penicillin and 100 μg/mL streptomycin (Invitrogen, #15140-122). The cell clumps were allowed to sediment and were removed by pipetting, and the resulting single cell suspension was used. 90 μL splenocytes (cell density 1.7×10^6, 90% viable determined using the NC-100 NucleoCounter system following the manufacturer's (ChemoMetec A/S) protocol) were added 10 μL NAM (N-(9-acridinyl)maleimide, Sigma, #01665, CAS no. 49759-20-8) dissolved in DMSO (100 μg NAM pr. mL DMSO) and mixed by pipetting. Cells were loaded into a NucleoCassette, containing the DNA stain propidium iodide (PI). The cells were investigated using an Olympus IX50 fluorescence microscope, and images were captured using a Lumenera CCD camera and in-house developed software. PI and NAM fluorescence were detected using, respectively, U-MWG2 (green long pass: 510-550 nm) and U-MNUA2 (UV band pass, 330-385 nm) filter cubes (Olympus).

Drosophila S2 cells = assay: NAM/PI staining to determine viability of Drosophila S2 cells (fluorescence microscopy); type: cell-based, Drosophila melanogaster; details: 99% viable, diluted 10 times in PBS, 10 μg/mL NAM
Protocol: (Drosophila melanogaster Schneider line-2 (S2) cells were originally derived from late embryonic stage Drosophila embryos.) Drosophila S2 cells were grown at 28° C. without shaking in Schneider's Drosophila medium (Invitrogen, #21720) supplemented with 10% heat-inactivated fetal bovine serum (Invitrogen, #10108-165). S2 cells (cell density 1.7×10^7, 99% viable determined using the YC-100 NucleoCounter system with diploid settings following the manufacturer's (ChemoMetec) protocol) were diluted 10 times in PBS and stained with 10 μg/mL NAM (Sigma, #01665). Cells were loaded into a NucleoCassette, containing the DNA stain propidium iodide (PI). The cells were investigated using an Olympus IX50 fluorescent microscope, and images were captured using a Lumenera CCD camera and in-house developed software. PI and NAM fluorescence were detected using, respectively, U-MWG2 (green long pass: 510-550 nm) and U-MNUA2 (UV band pass, 330-385 nm) filter cubes (Olympus).

Which “staining of cells by CPI versus PI” value (Jurkat (JM) cells [1]) does the source give for `CCN(CC)c1ccc2c(C)c(-c3ccc(NC(=O)CI)cc3)c(=O)oc2c1` [CPI, 7-diethylamino-3-((4′-(iodoacetyl)amino)phenyl)-4-methylcoumarin] here?
Its value is “nearly all cells were stained by CPI”.

Which “staining of Triton X-100 treated cells” value (HEK293 cells) does the source give for `CC[N+](C)(CC)CCC[n+]1c(-c2ccccc2)c2cc(N)ccc2c2ccc(N)cc21.[I-].[I-]` [PI, propidium iodide] here?
The value was “PI positive”.

With `O=C1C=CC(=O)N1c1c2ccccc2nc2ccccc12` [NAM, N-(9-acridinyl)maleimide] as the compound, how does the “staining of cells by NAM versus PI” value (bone marrow cells) read?
Its value is “nearly all the primary bone marrow cells were stained by NAM; again only exception were PI positive cells”.

What about the “staining of cells by NAM versus PI” value (Jurkat (JM) cells [2]) of the same compound?
The value was “nearly all cells in the proliferating Jurkat cell culture were stained by NAM; only exception were PI positive cells”.

What about the “intracellular localization of NAM in yeast cells” value (S. pombe strain Eg328; 10 μg/ml NAM) of the same compound?
Its value is “localizes to both the nucleus and cytosol”.

What about the “staining of living and dead yeast cells by NAM” value (S. pombe strain Eg328; 10 μg/ml NAM and 10 μg/ml propidium iodide) of the same compound?
Its value is “NAM stains both living and dead yeast cells”.

And the “intracellular localization of fluorescent NAM” value (MCF-7 cells; GFP-expressing cell lines)?
Its value is “found in both the nucleus and cytosol”.

What about the “intracellular localization of fluorescent NAM” value (MCF-7 cells; H2B-GFP-expressing cells) of the same compound?
The value was “found outside as well as inside the nucleus”.

What about the “intracellular localization of fluorescent NAM” value (U2OS cells; GFP-expressing cell lines) of the same compound?
Its value is “found in both the nucleus and cytosol”.

What about the “intracellular localization of fluorescent NAM” value (U2OS cells; H2B-GFP-expressing cells) of the same compound?
The value was “found outside as well as inside the nucleus”.

What about the “fluorescence of NAM alone” value ([3]; NAM 0.33 μg/mL in distilled water, no thiol) of the same compound?
Its value is “only exhibited very weak fluorescence”.

What about the “fluorescence on mixing NAM with GSH” value ([3]; NAM 0.33 μg/mL, GSH 167 μg/mL) of the same compound?
The value was “strong synergistic effect with respect to fluorescence”.

And the “fluorescence on mixing NAM with DTT” value ([3]; NAM with DTT 167 μg/mL)?
Its value is “strong synergistic effect with respect to fluorescence”.

What about the “fluorescence of NAM upon reaction with sulfite” value [4] of the same compound?
Its value is “fluoresces strongly”.

What about the “staining of cells by NAM versus PI” value [5] of the same compound?
The value was “nearly all the primary spleen cells were stained by NAM; only exception were PI positive cells”.

What about the “staining of cells by NAM versus PI” value (Drosophila S2 cells) of the same compound?
The value was “NAM and PI were found to complementary stain S2 cells”.

And the “staining of Triton X-100 treated cells” value (HEK293 cells)?
Its value is “NAM negative”.

And the “staining of cells by NAM versus PI” value (HEK293 cells; outgrown HEK293 cells, 78% viable, 10 μg/mL NAM)?
Its value is “NAM and PI were found to complementary stain the outgrown HEK293 cells”.
